Reference: US20160296438A1, “PROTECTIVE ACTION OF LUTEIN AGAINST BLUE LIGHT ON HUMAN SKIN CELL LINES” (Kemin Industries, Inc., priority 2015, published 2016)
“Also recorded” adds a separate entry of the source.

Columns and labels:
[1] = tested on: human epidermal keratinocytes (HEK) cells; experiment: Blue light shielding study with lutein, cell viability/proliferation by MTS assay; format: cell-based; conditions: lutein solution in DMSO at 50, 100 and 200 ppm as shield plate on top, blue LED 476 nm, 9 hours, p<0.05, FIG. 2
Protocol: (§1) Cell culture studies. All the cell culture studies were performed using HEK cells [HEK001 (ATCC® CRL-2404™) lot #61331463] continuous cell lines and Human Skin Fibroblast (HDF) [CCD1093Sk (ATCC® CRL2115™) lot #3296816] cell lines [ATCC, Manassas, Va.].
(§2) The growth medium used for HEK cells was prepared according to ATCC guidelines. Growth media consisting of keratinocyte serum free medium (GIBCO-BRL 17005042, lot #1638561) with 5 ng/mL human recombinant epidermal growth factor (EGF) (ATCC, lot # 1584416) and 2 mM L-glutamine (ATCC, lot #62195752) (without bovine pituitary extract and serum) and supplemented with penicillin (10000 units) and streptomycin (10 mg/mL) solution (Gibco, lot #1469707). The growth medium used for HDF cells consisting of eagle's Minimum Essential Medium (EMEM) (ATCC-302003, lot #62028896) with 10% FBS and supplemented with penicillin (10000 units) and streptomycin (10 mg/mL) solution. Cells were grown in cell culture flasks (75 cm^2) [Fisher Scientific, catalog number 10-126-37] to approximately 80% confluence in 5% CO2 environment incubator (NuAire, MN) maintained at 37° C. Confluent cells were passed into subsequent cultures by trypsinization following neutralization and centrifugation. […]
(§3) MTS assay. […] After incubation the absorbance at 490 nm was recorded using microplate Reader (SpectraMax® Me5, Molecular Devices, LLC. Sunnyvale, Calif.). […]

[2] = tested on: human dermal fibroblasts (HDF) cells; experiment: as above; format: cell-based; conditions: lutein solution in DMSO at 50, 100 and 200 ppm as shield plate on top, blue LED 476 nm, 9 hours, p<0.05, FIG. 3
Protocol: as §1, §2, §3

[3] = Solubility of lutein in cell culture media and DMSO; format: physicochemical
Protocol: FloraGLO™ Lutein (production number M080033, lot number 1405102477, manufactured date Jun. 04, 2014) was solubilized in sterile dimethyl sulfoxide (DMSO) [ATCC, lot #61908420] with intermittent shaking for at least 6 hours to get a stock of 2 mg/mL solution. From the stock; 2.5, 5 and 10 μl of the lutein solution was added to wells containing 100 μl media to get a final lutein concentration of 50, 100 and 200 ppm in corresponding wells. Hydrogen peroxide (H2O2) [Sigma, lot #WKBS8306V] solution at 1 mM was served as a positive control in all the studies. Pure DMSO at 2.5, 5 and 10 μl was added to few wells to have the DMSO control.
FloraGLO™ Lutein was solubilized in DMSO and applied to cell cultures. […] In our earlier attempts for cell viability assays with various detection mechanisms, this high concentrations of DMSO might be interacting with cell culture membranes and causing a reduction in cell proliferation and decrease in cell viability compared to controls.

[4] = tested on: human epidermal keratinocytes (HEK) cells; experiment: Intracellular reactive oxygen species (ROS) assay (DCFH-DA) under blue light; format: cell-based; conditions: lutein at 50, 100 and 200 ppm, blue LED 476 nm, 9 hours, FIG. 5
Protocol: (§4) Reactive Oxygen Species (ROS) assay. ROS activity was measured using Oxiselect™ intracellular ROS assay kit (Cell BioLabs, San Diego, Calif., catalogue number STA 342, lot #59342025). The cells were seeded into 96-well microplates at a density of 100,000 cells/mL (200 μL). Both the cell lines were treated with cell permeable fluorogenic probe 2′, 7′-dichlorodihydrofluorescin diacetate (DCFH-DA). Cells were washed with D-PBS for couple of times and treated with lutein at different concentrations and exposed to blue LED lights (476 nm) for 9 hours (Cells that were not treated with lutein will serve as blue light control). Cells treated with pure DMSO serves as a control for DMSO effect in presence and absence of blue light. […] After 5 minutes incubation, 150 μL of this medium was transferred to a black wall 96-well plate and fluorescence was measured. […] Intracellular reactive oxygen species (ROS) activity and the oxidative stress was measured using Oxiselect™ intracellular ROS assay kit which can measure hydroxyl, peroxyl and other free radical in the cells. […] DCFH will be rapidly oxidized to fluorescent […] (DCF-green fluorescence) in presence of reactive oxygen species. The fluorescence intensity is proportional to the ROS levels within the cell cytosol. […]

[5] = tested on: human dermal fibroblasts (HDF) cells; experiment: as above; format: cell-based; conditions: lutein at 50, 100 and 200 ppm, blue LED 476 nm, 9 hours, FIG. 6
Protocol: as §4

Compound: CC1=C[C@H](O)CC(C)(C)[C@H]1/C=C/C(C)=C/C=C/C(C)=C/C=C/C=C(C)/C=C/C=C(C)/C=C/C1=C(C)C[C@@H](O)CC1(C)C [lutein]
- cell proliferation (% cell viability) compared to blue light control [1]: significantly improved; also recorded: shielded the blue light effectively
- cell proliferation (% cell viability) compared to blue light control [2]: significantly improved; also recorded: shielded the blue light effectively
- solubility in DMSO ([3]; DMSO): limited solubility
- solubility in cell culture compatible media ([3]; cell culture compatible media): does not dissolve
- fluorescence signal (DCF, generation of ROS) on blue light exposure [4]: low and prevent the generation of reactive oxygen species
- fluorescence signal (DCF, generation of ROS) on blue light exposure [5]: low and prevent the generation of reactive oxygen species
